# Data as given in US7968725B2, “Pyridinyl modulators of γ-secretase” (Janssen Pharmaceutica N.V., priority 2008, dated 2011).
# pEC50: −log10 of the molar value.
# Target: T1, γ-secretase (Homo sapiens, UniProt P49768)
# T1 construct: endogenous in cells; host or cells: SKNBE2 cells carrying APP 695 wild type
# Test: Screening for γ-secretase-modulating activity in SKNBE2 cells carrying the APP 695-wild type (assay per Citron et al 1997)
# Assay type: cell-based
# Conditions: @ 1 uM; SKNBE2 cells carrying APP 695-wild type
# Protocol: Screening of the Compounds of the Invention for γ-Secretase-Modulating Activity
# Screening was carried out using SKNBE2 cells carrying the APP 695-wild type, grown in DMEM/NUT-mix F12 (HAM) provided by Gibco (cat no. 31330-38) containing 5% Serum/Fe supplemented with 1% non-essential amino acids.
# Cells were grown to near confluency.
# The screening was performed using the assay as described in Citron et al (1997) Nature Medicine 3: 67.
row,inhibition at 1 µM [%],SMILES
1,16,"C=C(C)CC(C(=O)O)c1cc(-c2ccc(C(F)(F)F)cc2)nc(-c2cccc(-c3ccccc3)c2)c1 (stereo not drawn) [Example 34, 2-[2-Biphenyl-3-yl-6-(4-trifluoromethyl-phenyl)-pyridin-4-yl]-4-methyl-pent-4-enoic acid]"
2,0,"C=C(C)CC(C(=O)O)c1cc(-c2ccc(C(F)(F)F)cc2)nc(-c2ccc(F)cc2F)c1 (stereo not drawn) [Example 23, 2-[2-(2,4-Difluoro-phenyl)-6-(4-trifluoromethyl-phenyl)-pyridin-4-yl]-4-methyl-pent-4-enoic acid]"
3,1,"COc1ccc(-c2cc(C(CC(C)C)C(=O)O)cc(-c3ccc(C(F)(F)F)cc3)n2)cc1 (stereo not drawn) [Example 4, 2-[2-(4-Methoxy-phenyl)-6-(4-trifluoromethyl-phenyl)-pyridin-4-yl]-4-methyl-pentanoic acid]"
4,0,"CC(C)CC(C(=O)O)c1cc(-c2ccc(C(F)(F)F)cc2)nc(-c2ccc(C(F)(F)F)nc2)c1 (stereo not drawn) [Example 30, 4-Methyl-2-[6′-trifluoromethyl-6-(4-trifluoromethyl-phenyl)-[2,3′]bipyridinyl-4-yl]-pentanoic acid]"
5,23,"C=C(C)CC(C(=O)O)c1cc(-c2ccc(C(F)(F)F)cc2)nc(-c2ccc(C(F)(F)F)cc2C(F)(F)F)c1 (stereo not drawn) [Example 16, 2-[2-(2,4-Bis-trifluoromethyl-phenyl)-6-(4-trifluoromethyl-phenyl)-pyridin-4-yl]-4-methyl-pent-4-enoic acid]"
6,2,"CC(C)CC(C(=O)O)c1cc(-c2ccc(C(F)(F)F)cc2)nc(-c2c(F)cccc2F)c1 (stereo not drawn) [Example 26, 2-[2-(2,6-Difluoro-phenyl)-6-(4-trifluoromethyl-phenyl)-pyridin-4-yl]-4-methyl-pentanoic acid]"
7,5,"C=C(C)CC(C(=O)O)c1cc(-c2ccc(C(F)(F)F)cc2)nc(-c2c(F)cccc2F)c1 (stereo not drawn) [Example 27, 2-[2-(2,6-Difluoro-phenyl)-6-(4-trifluoromethyl-phenyl)-pyridin-4-yl]-4-methyl-pent-4-enoic acid]"
8,5,"CC(C)CC(C(=O)O)c1cc(-c2ccc(C(F)(F)F)cc2)nc(-c2ccc(F)cc2F)c1 (stereo not drawn) [Example 22, 2-[2-(2,4-Difluoro-phenyl)-6-(4-trifluoromethyl-phenyl)-pyridin-4-yl]-4-methyl-pentanoic acid]"
9,19,"CC(C)CC(C(=O)O)c1cc(-c2ccc(C(F)(F)F)cc2)nc(-c2cc(F)ccc2F)c1 (stereo not drawn) [Example 25, 2-[2-(2,5-Difluoro-phenyl)-6-(4-trifluoromethyl-phenyl)-pyridin-4-yl]-4-methyl-pentanoic acid]"
10,0,"C=C(C)CC(C(=O)O)c1cc(-c2ccc(C(F)(F)F)cc2)nc(-c2cc3ccccc3s2)c1 (stereo not drawn) [Example 28, 2-[2-Benzo[b]thiophen-2-yl-6-(4-trifluoromethyl-phenyl)-pyridin-4-yl]-4-methyl-pent-4-enoic acid]"
11,0,"Cc1ccc(-c2cc(C(CC(C)C)C(=O)O)cc(-c3ccc(C(F)(F)F)cc3)n2)cc1 (stereo not drawn) [Example 11, 4-Methyl-2-[2-p-tolyl-6-(4-trifluoromethyl-phenyl)-pyridin-4-yl]-pentanoic acid]"
12,12,"CC(C)CC(C(=O)O)c1cc(-c2ccc(C(F)(F)F)cc2)nc(-c2cccc(F)c2F)c1 (stereo not drawn) [Example 21, 2-[2-(2,3-Difluoro-phenyl)-6-(4-trifluoromethyl-phenyl)-pyridin-4-yl]-4-methyl-pentanoic acid]"
13,9,"C=C(C)CC(C(=O)O)c1cc(-c2ccc(C(F)(F)F)cc2)nc(-c2cccc(F)c2F)c1 (stereo not drawn) [Example 20, 2-[2-(2,3-Difluoro-phenyl)-6-(4-trifluoromethyl-phenyl)-pyridin-4-yl]-4-methyl-pent-4-enoic acid]"
14,22,"CC(C)CCN(c1ccc(C(C)(C)C)cc1)c1cc(C(CC(C)C)C(=O)O)cc(-c2ccc(C(F)(F)F)cc2)n1 (stereo not drawn) [Example 46, 2-[2-[(4-tert-Butyl-phenyl)-(3-methyl-butyl)-amino]-6-(4-trifluoromethyl-phenyl)-pyridin-4-yl]-4-methyl-pentanoic acid]"
15,20,"CC(C)CC(C(=O)O)c1cc(-c2ccc(C(F)(F)F)cc2)nc(N(CCN2CCCCC2)c2ccc(C(F)(F)F)cc2)c1 (stereo not drawn) [Example 45, 4-Methyl-2-[2-[(2-piperidin-1-yl-ethyl)-(4-trifluoromethyl-phenyl)-amino]-6-(4-trifluoromethyl-phenyl)-pyridin-4-yl]-pentanoic acid]"
16,7,"C=C(C)CC(C(=O)O)c1cc(-c2ccc(C)cc2)nc(-c2ccc(C(F)(F)F)cc2)c1 (stereo not drawn) [Example 32, 4-Methyl-2-[2-p-tolyl-6-(4-trifluoromethyl-phenyl)-pyridin-4-yl]-pent-4-enoic acid]"
17,32,"CC(C)CC(C(=O)O)c1cc(-c2ccc(C(F)(F)F)cc2)nc(-c2cccc(C(F)(F)F)c2)c1 (stereo not drawn) [Example 12, 4-Methyl-2-[2-(3-trifluoromethyl-phenyl)-6-(4-trifluoromethyl-phenyl)-pyridin-4-yl]-pentanoic acid]"
18,8,"CC(C)CC(C(=O)O)c1cc(-c2ccccc2)nc(-c2ccc(C(F)(F)F)cc2)c1 (stereo not drawn) [Example 38, 4-Methyl-2-[2-phenyl-6-(4-trifluoromethyl-phenyl)-pyridin-4-yl]-pentanoic acid]"
19,56,"O=C(O)Cc1cc(-c2ccc(C(F)(F)F)cc2)nc(N(CCC2CCCCC2)c2ccc(C(F)(F)F)cc2)c1 [Example 43, [2-[(2-Cyclohexyl-ethyl)-(4-trifluoromethyl-phenyl)-amino]-6-(4-trifluoromethyl-phenyl)-pyridin-4-yl]-acetic acid]"
20,20,"CC(C)CC(C(=O)O)c1cc(-c2ccc(C(F)(F)F)cc2)nc(-c2ccc3c(c2)OCO3)c1 (stereo not drawn) [Example 33, 2-[2-Benzo[1,3]dioxol-5-yl-6-(4-trifluoromethyl-phenyl)-pyridin-4-yl]-4-methyl-pentanoic acid]"
21,53,"CC(C)CC(C(=O)O)c1cc(-c2ccc(C(F)(F)F)cc2)nc(-c2cccc(-c3ccccc3)c2)c1 (stereo not drawn) [Example 35, 2-[2-Biphenyl-3-yl-6-(4-trifluoromethyl-phenyl)-pyridin-4-yl]-4-methyl-pentanoic acid]"
22,14,"CC(C)CC(C(=O)O)c1cc(-c2ccc(C(F)(F)F)cc2)nc(-c2cncc3ccccc23)c1 (stereo not drawn) [Example 19, 2-[2-Isoquinolin-4-yl-6-(4-trifluoromethyl-phenyl)-pyridin-4-yl]-4-methyl-pentanoic acid]"
23,22,"C=C(C)CC(C(=O)O)c1cc(-c2ccc(C(F)(F)F)cc2)nc(-c2cc(F)ccc2F)c1 (stereo not drawn) [Example 24, 2-[2-(2,5-Difluoro-phenyl)-6-(4-trifluoromethyl-phenyl)-pyridin-4-yl]-4-methyl-pent-4-enoic acid]"

row,SMILES,inhibition at 1 µM [%]
1,"CC(C)COc1cccc(-c2cc(C(CC(C)C)C(=O)O)cc(-c3ccc(C(F)(F)F)cc3)n2)c1 (stereo not drawn) [Example 36, 2-[2-(3-Isobutoxy-phenyl)-6-(4-trifluoromethyl-phenyl)-pyridin-4-yl]-4-methyl-pentanoic acid]",41

# Same assay, conditions: SKNBE2 cells carrying APP 695-wild type
row,pEC50,SMILES
1,6.52,"CC(C)CCN(c1ccc(C(F)(F)F)cc1)c1cc(C(CC(C)C)C(=O)O)cc(-c2ccc(C(F)(F)F)cc2)n1 (stereo not drawn) [Example 41, 4-Methyl-2-[2-[(3-methyl-butyl)-(4-trifluoromethyl-phenyl)-amino]-6-(4-trifluoromethyl-phenyl)-pyridin-4-yl]-pentanoic acid]"
2,6.14,"CC(C)CC(C(=O)O)c1cc(-c2ccc(C(C)C)cc2)nc(-c2ccc(C(F)(F)F)cc2)c1 (stereo not drawn) [Example 9, 2-[2-(4-Isopropyl-phenyl)-6-(4-trifluoromethyl-phenyl)-pyridin-4-yl]-4-methyl-pentanoic acid]"
3,6.70,"CC(C)CC(C(=O)O)c1cc(-c2ccc(C(F)(F)F)cc2)nc(-c2cc(F)cc(F)c2)c1 (stereo not drawn) [Example 10, 2-[2-(3,5-Difluoro-phenyl)-6-(4-trifluoromethyl-phenyl)-pyridin-4-yl]-4-methyl-pentanoic acid]"
4,6.17,"CC(C)CC(C(=O)O)c1cc(-c2ccc(C(F)(F)F)cc2)nc(-c2cnc3ccccc3c2)c1 (stereo not drawn) [Example 7, 4-Methyl-2-[2-quinolin-3-yl-6-(4-trifluoromethyl-phenyl)-pyridin-4-yl]-pentanoic acid]"
5,5.89,"CC(C)CCN(c1ccc(C(C)(C)C)cc1)c1cc(CC(=O)O)cc(-c2ccc(C(F)(F)F)cc2)n1 [Example 47, [2-[(4-tert-Butyl-phenyl)-(3-methyl-butyl)-amino]-6-(4-trifluoromethyl-phenyl)-pyridin-4-yl]-acetic acid]"
6,6.19,"CC(C)CC(C(=O)O)c1cc(-c2ccc(C(F)(F)F)cc2)nc(N(CCC2CCCCC2)c2ccc(C(F)(F)F)cc2)c1 (stereo not drawn) [Example 44, 2-[2-[(2-Cyclohexyl-ethyl)-(4-trifluoromethyl-phenyl)-amino]-6-(4-trifluoromethyl-phenyl)-pyridin-4-yl]-4-methyl-pentanoic acid]"
7,6.92,"CC(C)CC(C(=O)O)c1cc(-c2ccc(C(F)(F)F)cc2)nc(-c2cc(F)cc(C(F)(F)F)c2)c1 (stereo not drawn) [Example 8, 2-[2-(3-Fluoro-5-trifluoromethyl-phenyl)-6-(4-trifluoromethyl-phenyl)-pyridin-4-yl]-4-methyl-pentanoic acid]"
8,6.47,"CC(C)CC(C(=O)O)c1cc(-c2ccc(C(F)(F)F)cc2)nc(N(CC(C)C)c2ccc(C(F)(F)F)cc2)c1 (stereo not drawn) [Example 40, 2-[2-[Isobutyl-(4-trifluoromethyl-phenyl)-amino]-6-(4-trifluoromethyl-phenyl)-pyridin-4-yl]-4-methyl-pentanoic acid]"
9,6.59,"CC(C)CC(C(=O)O)c1cc(-c2ccc(C(F)(F)F)cc2)nc(-c2ccc(C(F)(F)F)cc2)c1 (stereo not drawn) [Example 1, 2-[2,6-Bis-(4-trifluoromethyl-phenyl)-pyridin-4-yl]-4-methyl-pentanoic acid]"
